Measurements taken from patent publication US20230174484A1, “ANTAGONISTS OF GPR39 PROTEIN” (Oregon Health & Science University, priority 2020, published 2023).
pKi: −log10 of the molar value.

Molecular target: T1, human GPR39 receptor (Homo sapiens, UniProt O43194)
T1 construct: PC3 Cells, Expressing the Endogenous Human GPR39 Receptor; endogenous in cells; host or cells: PC3 (human prostate adenocarcinoma) cells
T1 sequence (O43194 1-453): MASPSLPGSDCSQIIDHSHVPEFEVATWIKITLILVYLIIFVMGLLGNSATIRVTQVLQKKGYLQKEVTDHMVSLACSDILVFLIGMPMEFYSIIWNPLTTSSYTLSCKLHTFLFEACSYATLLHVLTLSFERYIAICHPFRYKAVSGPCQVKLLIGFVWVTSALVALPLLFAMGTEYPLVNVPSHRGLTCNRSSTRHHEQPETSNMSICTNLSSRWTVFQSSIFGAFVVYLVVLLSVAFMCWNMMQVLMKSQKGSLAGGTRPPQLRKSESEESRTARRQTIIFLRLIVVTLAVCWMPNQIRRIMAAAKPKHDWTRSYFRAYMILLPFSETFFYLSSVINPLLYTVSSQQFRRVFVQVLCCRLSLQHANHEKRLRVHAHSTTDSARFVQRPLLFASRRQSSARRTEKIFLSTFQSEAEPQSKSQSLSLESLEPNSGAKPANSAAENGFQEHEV
Assay: Measurement of intracellular calcium response in PC3 cells (FLIPR), antagonism of the C3 agonist response
Assay type: cell-based
Details: functional pKi (modified Cheng-Prusoff), inhibition of the C3 (TC-G 1008) response at EC90, 30 μM ZnCl2, read-out: fpKi activity
Protocol: Human prostate adenocarcinoma (PC3) cells endogenously expressing human GPR39 receptor were seeded into black walls clear-base 384-well plates at a density of 7,500 cells per well in DM EM (Low Glucose) supplemented with 10% heat-inactivated foetal bovine serum and 1% of Pen/Strep and grown overnight at 37° C., 5% CO2. After washing with assay buffer (20 mM HEPES, 137 mM NaCI, 5.4 mM KCI, 10 mM glucose, 0.8 mM MgSO4, 1.3 mM CaCl2, 0.3 mM Na2HPO4, 0.4 mM KH2PO4 4.2 mM NaHCO3, pH 7.4), cells were incubated with Calcium-6 probe (Molecular Devices) at 37° C. for 2h and then equilibrated at RT for 30 minutes on metal block. The fluorescence was measured in real time by Fluorometric Imaging Plate Reader (FLIPR TETRA, Molecular Devices) (excitation wavelength at 470-495 nm, emission wavelength at 515-575 nm).
Compounds of invention were serially diluted in neat DMSO at 1000 fold concentrations and plated into 384-well plates and then 200-fold diluted in assay buffer containing 150 uM ZnCl2 (30 μM final concentration) and […].
Fluorescence was monitored throughout the run assay. The peak of Ca2+stimulation (baseline subtracted) was expressed as percentage of the maximal inhibition of the EC90 C3 response and was plotted versus the concentration of test compound. Curve fitting and IC50 estimations are carried out using a four-parameter logistic model using XLfit Software.
The potency of compounds was reported as functional pKi (—Log10Ki) obtained using the modified Cheng-Prusoff relationship (Cheng, Y., Prusoff, W. H. 1973.)
fKi =IC50/(1+[L]/EC50) where IC50 is the concentration of antagonist required for 50% inhibition of the maximum response, [L] is the concentration of the agonist used (EC90) and EC50 is the concentration of agonist need to induced 50% of the maximum response (obtained in each experimental plate).
An fpKi less than 5.2 is reported as “+/±”. An fpKi ranging from 5.2 to 5.9 is reported as “+”. An fpKi from 6.0 to 6.5 is reported as “++”. An fpKi from 6.6 to 7.2 is reported as “+++”. An fpKi equal to or greater than 7.3 is reported as “++++”.

O=C(Nc1ccc(C(=O)N2CCOCC2)c(N2CCCCCC2)c1)C1CC1 [Example 45, N-(3-(azepan-1-yl)-4-(morpholine-4-carbonyl)phenyl)cyclopropanecarboxamide]
pKi: 6.00 to 6.50

CCCC1CCN(C(=O)c2ccc(NC(=O)C3CC3)cc2N2CCCCCC2)CC1 [Example 47, N-(3-(azepan-1-yl)-4-(4-propylpiperidine-1-carbonyl)phenyl)cyclopropanecarboxamide]
pKi: 6.60 to 7.20

O=C(Nc1ccc(C(=O)N2CCCCC2)c(N2CCCCCC2)c1)C1CC1 [Example 35, N-(3-(azepan-1-yl)-4-(piperidine-1-carbonyl)phenyl)cyclopropanecarboxamide]
pKi: 6.60 to 7.20

Cc1nnc(-c2ccc(C(=O)N3CCN(C)CC3c3ccccc3)c(N3CCCC3)c2)[nH]1 (single isomer, unassigned) [Example 150a, (2R or 2S) (4-methyl-2-phenylpiperazin-1-yl)-[4-(5-methyl-4H-1,2,4-triazol-3-yl)-2-pyrrolidin-1-ylphenyl]methanone]
pKi: 6.60 to 7.20

CC1CCN(c2cc(NC(=O)C3CC3)ccc2C(=O)N2CCN(C)CC2c2ccccc2)C1 (single isomer, unassigned) [Example 64b, (2S, 3R) or (2R, 3S) or (2R, 3R) or (2S, 3S) N-[4-(4-methyl-2-phenylpiperazine-1-carbonyl)-3-(3-methylpyrrolidin-1-yl)phenyl] cyclopropanecarboxamide]
pKi: 5.20 to 5.90

CN1CCN(C(=O)c2ccc(NC(=O)C3CC3)cc2N2CCCC2)C(c2ccncc2Cl)C1 (racemic) [Example 174, N-[4-[2-(3-chloropyridin-4-yl)-4-methylpiperazine-1-carbonyl]-3-pyrrolidin-1-ylphenyl]cyclopropanecarboxamide]
pKi: 6.60 to 7.20

CN1CCN(C(=O)c2ccc(NC(=O)C3CC3)cc2N2CCCCCC2)C(c2ccsc2)C1 (single isomer, unassigned) [Example 70b, N-(3-(azepan-1-yl)-4-(4-methyl-2-(thiophen-3-yl)piperazine-1-carbonyl)phenyl)cyclopropane carboxamide]
pKi: ≥ 7.30

CC(C)C1CN(C)CCN1C(=O)c1ccc(NC(=O)C2CC2)cc1N1CCCCCC1 (stereo not shown) [Example 79, N-[3-(azepan-1-yl)-4-(4-methyl-2-propan-2-ylpiperazine-1-carbonyl)phenyl]Cyclopropanecarboxamide]
pKi: 5.20 to 5.90

CN1CCN(C(=O)c2ccc(NC(=O)C3CC3)cc2N2CCCC2)C(c2cncnc2)C1 (racemic) [Example 175, N-[4-(4-methyl-2-pyrimidin-5-ylpiperazine-1-carbonyl)-3-pyrrolidinylphenyl]cyclopropanecarboxamide]
pKi: 6.00 to 6.50

O=C(Nc1ccc(C(=O)N2CCn3c(nnc3C(F)(F)F)C2)c(N2CCCCCC2)c1)C1CC1 [Example 41]
pKi: 5.20 to 5.90

CCCN1CCN(C(=O)c2ncc(NC(=O)C3CC3)nc2N2CCCCCC2)CC1 [Example 106, N-[6-(azepan-1-yl)-5-(4-propylpiperazine-1-carbonyl)pyrazin-2-yl]Cyclopropanecarboxamide]
pKi: 5.20 to 5.90

CC1CN(C)CCN1C(=O)c1ccc(NC(=O)C2CC2)cc1N1CCCCCC1 (stereo not shown) [Example 37, N-[3-(azepan-1-yl)-4-(2,4-dimethylpiperazine-1-carbonyl)phenyl]cyclopropanecarboxamide]
pKi: 6.00 to 6.50

O=C(Nc1ccc(C(=O)N2CCC(C(F)(F)F)CC2)c(N2CCCCCC2)c1)C1CC1 [Example 38, N-(3-(azepan-1-yl)-4-(4-(trifluoromethyl)piperidine-1-carbonyl)phenyl) cyclopropanecarboxamide]
pKi: 6.60 to 7.20

COc1cccc(CN2CCN(C(=O)c3ccc(NC(=O)C4CC4)cc3N3CCCCCC3)CC2)c1 [Example 25, N-(3-(azepan-1-yl)-4-(4-(3-methoxybenzyl)piperazine-1-carbonyl)phenyl) Cyclopropanecarboxamide]
pKi: 6.00 to 6.50

CCCN1CCN(C(=O)c2ccc(NC(=O)C3CC3)cc2N2CCC(C)(C)CC2)CC1 [Example 17, N-(3-(4,4-dimethylpiperidin-1-yl)-4-(4-propylpiperazine-1-carbonyl)phenyl)cyclopropanecarboxamide]
pKi: 6.60 to 7.20

CC1CC(C)CN(c2cc(NC(=O)C3CC3)ccc2C(=O)N2CCN(C)CC2c2ccccc2)C1 (racemic) [Example 68c, Syn N-[3-[3,5-dimethylpiperidin-1-yl]-4-(4-methyl-2-phenylpiperazine-1-carbonyl)phenyl]cyclopropanecarboxamide]
pKi: ≥ 7.30

O=C(Nc1ccc(C(=O)N2CCS(=O)(=O)CC2)c(N2CC3CCC2C3)c1)C1CC1 (stereo not shown) [Example 187, N-[3-(3-azabicyclo[2.2.1]heptan-3-yl)-4-(1,1-dioxo-1,4-thiazinane-4-carbonyl)phenyl]cycloprooanecarboxamide]
pKi: 6.00 to 6.50

O=C(Nc1ccc(C(=O)N2CCN(c3ccccn3)CC2)c(N2CCCCCC2)c1)C1CC1 [Example 46, N-(3-(azepan-1-yl)-4-(4-(pyridin-2-yl)piperazine-1-carbonyl)phenyl) Cyclopropanecarboxamide]
pKi: 6.00 to 6.50

CN1CCN(C(=O)c2ccc(NC(=O)C3CC3)cc2N2CCCC2)C(c2cccs2)C1 (racemic) [Example 86c, N-[4-(4-methyl-2-thiophen-2-ylpiperazine-1-carbonyl)-3-pyrrolidin-1-ylphenyl]cyclopropanecarboxamide]
pKi: ≥ 7.30

CCCN1CCN(C(=O)c2ccc(NC(=O)c3ccccc3)cc2N2CCCCCC2)CC1 [Example 91, N-(3-(azepan-1-yl)-4-(4-propylpiperazine-1-carbonyl)phenyl)benzamide]
pKi: 5.20 to 5.90

CCCN1CCN(C(=O)c2ccc(NC(=O)C3CC3)cc2N2CCC(C)C2)CC1 (single isomer, unassigned) [Example 13a, N-(3-[(3R or 3S] 3-methylpyrrolidin-1-yl]-4-(4-propylpiperazine-1-carbonyl)phenyl) cyclopropanecarboxamide]
pKi: 6.60 to 7.20

CN1CCN(C(=O)c2ccc(NC(=O)C3CC3)cc2N2CCCC2)C(c2ccccc2F)C1 (single isomer, unassigned) [Example 84b, N-[4-[2-(2-fluorophenyl)-4-methylpiperazine-1-carbonyl]-3-pyrrolidin-1-ylphenyl]cyclopropanecarboxamide]
pKi: 5.20 to 5.90

Cc1nnc(-c2ccc(C(=O)N3CCC(F)(F)CC3)c(-n3ccc(C(C)C)n3)c2)[nH]1 [Example 210, (4,4-difluoropiperidin-1-yl)-[4-(5-methyl-4H-1,2,4-triazol-3-yl)-2-(3-propan-2-ylpyrazol-1-yl)phenyl]methanone]
pKi: ≥ 7.30

O=C(Nc1ccc(C(=O)N2CCN(Cc3cc[nH]n3)CC2)c(N2CCCCCC2)c1)C1CC1 [Example 23]
pKi: 6.00 to 6.50

CNC(=O)N1CCN(C(=O)c2ccc(NC(=O)C3CC3)cc2N2CCCC2)C(c2ccccc2)C1 (stereo not shown) [Example 217, 4-[4-(cyclopropanecarbonylamino)-2-pyrrolidin-1-ylbenzoyl]-N-methyl-3-phenylpiperazine-1-carboxamide]
pKi: 6.00 to 6.50

O=C(Nc1ccc(C(=O)N2CCS(=O)(=O)CC2)c(N2CCCC3(CC3)C2)c1)C1CC1 [Example 189, N-[3-(5-azaspiro[2.5]octan-5-yl)-4-(1,1-dioxo-1,4-thiazinane-4-carbonyl)phenyl]cyclopropanecarboxamide]
pKi: 6.60 to 7.20

O=C(Nc1ccc(C(=O)N2CCOC(C(F)(F)F)C2)c(N2CCCC2)c1)C1CC1 (stereo not shown) [Example 166, N-[3-pyrrolidin-1-yl-4-[2-(trifluoromethyl)morpholine-4-carbonyl]phenyl]cyclopropanecarboxamide]
pKi: 5.20 to 5.90

C[C@@H]1C[C@H](C)CN(c2cc(NC(=O)C3CC3)ccc2C(=O)N2CCS(=O)(=O)CC2)C1 [Example 67, Syn N-[3-[-3,5-dimethylpiperidin-1-yl]-4-(1,1-dioxo-1,4-thiazinane-4-carbonyl)phenyl]Cyclopropanecarboxamide]
pKi: ≥ 7.30
